pEC50: −log10 of the molar value.
Columns and labels:
[1] = tested on: Haemonchus contortus L1 larvae; assay: Haemonchus contortus larval development L1 to L3, 4 days, dose response; settings: 96 h, read-out: EC50, development of H. contortus larvae from L1 to L3
From the text: Biological Example 2: Screening Method to Test Activity of Compounds Against Haemonchus contortus

[2] = tested on: L4 stage larvae of Dirofilaria immitis; assay: Motility of L4 stage Dirofilaria immitis larvae, 3 days, dose response; assay type: cell-based; settings: 72 h, read-out: EC50, motility of L4 stage D. immitis, three days at 37° C., 5% CO2, vs DMSO control
[3] = tested on: Microfilaria of Dirofilaria immitis; assay: Motility of Dirofilaria immitis microfilariae in microtiter plate, 3 days, dose response; assay type: cell-based; settings: 72 h, read-out: EC50, motility of D. immitis microfilaria, three days at 37° C., 5% CO2, vs DMSO control

| SMILES | pEC50 [1] | pEC50 [2] | pEC50 [3] |
| --- | --- | --- | --- |
| Cc1cc2c(C(C)C)c(C(=O)N[C@H]3CCOc4ccccc43)cnn2c1-c1cc(Cl)cc(Cl)c1 [Compound A465, 7-(3,5-dichlorophenyl)-N-[(4S)-3,4-dihydro-2H-1-benzopyran-4-yl]-6-methyl-4-(propan-2-yl)pyrrolo[1,2-b]pyridazine-3-carboxamide] | 7.00 to 8.00 | 7.00 to 8.00 | 6.00 to 7.00 |
| CC(C)(C)c1c(C(=O)N[C@H]2CCOc3ccccc32)cnn2c(-c3cc(Cl)cc(Cl)c3)c(Cl)cc12 [Compound A477] | 7.00 to 8.00 | > 8.00 | > 8.00 |
| Cc1cc2c(N3CC(F)(F)C3)c(C(=O)N[C@H]3CCOc4ccccc43)cnn2c1-c1cc(Cl)cc(Cl)c1Cl [Compound A505] | 7.00 to 8.00 | > 8.00 | > 8.00 |
| Cc1cc2c(C(C)(C)C)c(C(=O)N[C@H]3CCOc4ccccc43)cnn2c1N1CCCCC1 [Compound A524, 4-tert-butyl-N-[(4S)-3,4-dihydro-2H-1-benzopyran-4-yl]-6-methyl-7-(piperidin-1-yl)pyrrolo[1,2-b]pyridazine-3-carboxamide] | 6.00 to 7.00 | 6.00 to 7.00 | 6.00 to 7.00 |
| Cc1cc2c(C(C)(C)C)c(C(=O)NC3CCCc4ncsc43)cnn2c1-c1cc(F)cc(Cl)c1Cl (stereo not drawn) [Compound A533] | 6.00 to 7.00 | 6.00 to 7.00 | 7.00 to 8.00 |
| Cc1cc2c(C(C)(C)C)c(C(=O)NN3CCOc4ccccc43)cnn2c1-c1cc(F)cc(Cl)c1Cl [Compound A495] | > 8.00 | > 8.00 | > 8.00 |
| Cc1cc2c(C(C)(C)C)c(C(=O)N[C@H]3CCOc4ccccc43)cnn2c1-c1cc(F)cc(F)c1F [Compound A471] | > 8.00 | > 8.00 | > 8.00 |
| CC(C)(C)c1c(C(=O)N[C@H]2CCOc3ccccc32)cnn2c(-c3cc(F)cc(F)c3F)c(Cl)cc12 [Compound A486] | > 8.00 | > 8.00 | > 8.00 |
| O=C(N[C@H]1CCOc2ccccc21)c1cnn2c(-c3cc(F)cc(Cl)c3Cl)c(Cl)cc2c1N1CC(F)(F)C1 [Compound A507] | > 8.00 | > 8.00 | > 8.00 |
| Cc1cc2c(C(C)(C)C)c(C(=O)N[C@H]3CCc4scnc43)cnn2c1-c1cc(F)cc(Cl)c1Cl [Compound A540] | 7.00 to 8.00 | 7.00 to 8.00 | > 8.00 |
| Cc1cc2c(C(C)(C)C)c(C(=O)N[C@H]3CCCc4cc(Cl)ccc43)cnn2c1-c1cc(F)cc(Cl)c1Cl [Compound A549] | 5.00 to 6.00 | 6.00 to 7.00 | 6.00 to 7.00 |
| Cc1cc2c(C(C)(C)C)c(C(=O)N[C@H]3CCc4cccnc43)cnn2c1-c1cc(F)cc(Cl)c1Cl [Compound A544] | 6.00 to 7.00 | 6.00 to 7.00 | 7.00 to 8.00 |
| CC(C)(C)c1c(C(=O)NN2CCOc3ccccc32)cnn2c(-c3cc(Cl)cc(Cl)c3)c(Cl)cc12 [Compound A516] | 7.00 to 8.00 | > 8.00 | > 8.00 |
| Cc1cc2c(C(C)(C)C)c(C(=O)N[C@H]3CCOc4scnc43)cnn2c1-c1cc(F)cc(Cl)c1Cl [Compound A550] | 7.00 to 8.00 | 7.00 to 8.00 | 7.00 to 8.00 |
| CC(C)(C)c1c(C(=O)N[C@H]2CCOc3ccccc32)cnn2c(-c3c(Cl)cc(F)cc3Cl)c(Cl)cc12 [Compound A485] | > 8.00 | > 8.00 | > 8.00 |
| CC(C)(C)c1c(C(=O)N[C@H]2CCOc3ccccc32)cnn2c(-c3cc(Cl)cc(Cl)c3)c(C(F)(F)F)cc12 [Compound A483] | 7.00 to 8.00 | > 8.00 | 7.00 to 8.00 |
| Cc1cc2c(C(C)(C)C)c(C(=O)N[C@H]3CCOc4ccccc43)cnn2c1-c1cc(F)cc(Cl)c1Cl [Compound A481, 4-tert-butyl-7-(2,3-dichloro-5-fluorophenyl)-N-[(4S)-3,4-dihydro-2H-1-benzopyran-4-yl]-6-methylpyrrolo[1,2-b]pyridazine-3-carboxamide] | 7.00 to 8.00 | > 8.00 | 7.00 to 8.00 |
| Cc1cc2c(C(C)(C)C)c(C(=O)N[C@H]3CCc4sccc43)cnn2c1-c1cc(F)cc(Cl)c1Cl [Compound A553] | > 8.00 | > 8.00 | > 8.00 |
| Cc1cc2c(C(C)(C)C)c(C(=O)N[C@H]3CCOc4ccc(F)cc43)cnn2c1-c1cc(F)cc(Cl)c1Cl [Compound A488] | 7.00 to 8.00 | 7.00 to 8.00 | > 8.00 |
| CN(C)c1c(C(=O)N[C@H]2CCOc3ccccc32)cnn2c(-c3cc(F)cc(F)c3F)c(Cl)cc12 [Compound A474] | 7.00 to 8.00 | > 8.00 | > 8.00 |
| Cc1cc2c(N3CCOCC3)c(C(=O)N[C@H]3CCOc4ccccc43)cnn2c1-c1cc(Cl)cc(Cl)c1 [Compound A499] | 7.00 to 8.00 | > 8.00 | > 8.00 |
| Cc1cc2c(N3CCOCC3)c(C(=O)N[C@H]3CCOc4ccccc43)cnn2c1-c1cc(Cl)cc(Cl)c1Cl [Compound A501] | 7.00 to 8.00 | > 8.00 | > 8.00 |

| SMILES | pEC50 [1] | pEC50 [2] | pEC50 [3] |
| --- | --- | --- | --- |
| Cc1cc2c(C(C)(C)C)c(C(=O)NN3CCOc4ccccc43)cnn2c1-c1cc(Cl)cc(Cl)c1 [Compound A482] | 6.00 to 7.00 | 7.00 to 8.00 | 5.00 to 6.00 |
| CC(C)c1c(C(=O)N[C@H]2CCOc3ccccc32)cnn2c(-c3cc(Cl)cc(Cl)c3)c(Cl)cc12 [Compound A463] | 7.00 to 8.00 | 7.00 to 8.00 | > 8.00 |
| CC1(C)CN(c2c(C(=O)N[C@H]3CCOc4ccccc43)cnn3c(-c4cc(F)cc(Cl)c4Cl)c(Cl)cc23)C1 [Compound A567] | 5.00 to 6.00 | 6.00 to 7.00 | 5.00 to 6.00 |
| Cc1cc2c(C(C)(C)C)c(C(=O)N[C@H]3CCOc4ccccc43)cnn2c1N1C[C@H](C)C[C@H](C)C1 [Compound A528] | 6.00 to 7.00 | 7.00 to 8.00 | 7.00 to 8.00 |
| CN(C)c1c(C(=O)N[C@H]2CCOc3ccccc32)cnn2c(-c3cc(F)cc(Cl)c3Cl)c(Cl)cc12 [Compound A478] | 7.00 to 8.00 | 6.00 to 7.00 | 7.00 to 8.00 |
| Cc1cc2c(C(C)C)c(C(=O)N[C@H]3CCOc4ccccc43)cnn2c1-c1cc(F)cc(F)c1F [Compound A513, N-[(4S)-3,4-dihydro-2H-1-benzopyran-4-yl]-6-methyl-4-(propan-2-yl)-7-(2,3,5-trifluorophenyl)pyrrolo[1,2-b]pyridazine-3-carboxamide] | 7.00 to 8.00 | > 8.00 | > 8.00 |
| Cc1cc2c(C(C)(C)C)c(C(=O)N[C@H]3CCOc4ccccc43)cnn2c1-c1c(F)cc(F)cc1F [Compound A476] | 7.00 to 8.00 | > 8.00 | 7.00 to 8.00 |
| CC(C)c1c(C(=O)N[C@H]2CCOc3ccccc32)cnn2c(-c3cc(Cl)cc(Cl)c3)c(F)cc12 [Compound A466] | 6.00 to 7.00 | 7.00 to 8.00 | 7.00 to 8.00 |
| O=C(N[C@H]1CCOc2ccccc21)c1cnn2c(-c3cc(F)cc(Cl)c3Cl)c(Cl)cc2c1N1CCC1 [Compound A503] | 7.00 to 8.00 | > 8.00 | > 8.00 |
| CC(C)(C)c1c(C(=O)NN2CCOc3ccccc32)cnn2c(-c3cc(F)cc(Cl)c3Cl)c(Cl)cc12 [Compound A494] | 7.00 to 8.00 | > 8.00 | 7.00 to 8.00 |
| Cc1cc2c(C(C)(C)C)c(C(=O)N[C@H]3CCc4sc(Br)nc43)cnn2c1-c1cc(F)cc(Cl)c1Cl [Compound A536a] | 7.00 to 8.00 | 7.00 to 8.00 | > 8.00 |
| CC(C)(C)c1c(C(=O)N[C@H]2CCOc3ccccc32)cnn2c(-c3cc(Cl)cc(Cl)c3Cl)c(Cl)cc12 [Compound A522] | > 8.00 | > 8.00 | > 8.00 |
| CC(C)(C)c1c(C(=O)N[C@H]2CCOc3ccccc32)cnn2c(-c3cc(F)cc(Cl)c3Cl)c(Cl)cc12 [Compound A502, 4-tert-butyl-6-chloro-7-(2,3-dichloro-5-fluorophenyl)-N-[(4S)-3,4-dihydro-2H-1-benzopyran-4-yl]pyrrolo[1,2-b]pyridazine-3-carboxamide] | > 8.00 | > 8.00 | > 8.00 |
| CC(C)(C)c1c(C(=O)N[C@H]2CCOc3ccccc32)cnn2c(-c3c(F)cc(F)cc3F)c(Cl)cc12 [Compound A484] | > 8.00 | > 8.00 | > 8.00 |
| Cc1cc2c(C(C)C)c(C(=O)NN3CCOc4ccccc43)cnn2c1-c1cc(F)cc(Cl)c1Cl [Compound A498] | 7.00 to 8.00 | > 8.00 | > 8.00 |
| CC(C)c1c(C(=O)N[C@H]2CCOc3ccccc32)cnn2c(-c3cc(F)cc(Cl)c3Cl)c(Cl)cc12 [Compound A523, 6-chloro-7-(2,3-dichloro-5-fluorophenyl)-N-[(4S)-3,4-dihydro-2H-1-benzopyran-4-yl]-4-(propan-2-yl)pyrrolo[1,2-b]pyridazine-3-carboxamide] | > 8.00 | > 8.00 | > 8.00 |
| Cc1cc2c(N3CC(C)(C)C3)c(C(=O)N[C@H]3CCOc4ccccc43)cnn2c1-c1cc(Cl)cc(Cl)c1Cl [Compound A563] | 5.00 to 6.00 | 5.00 to 6.00 | 5.00 to 6.00 |
| Cc1cc2c(C(C)(C)C)c(C(=O)N[C@H]3CCCc4ccccc43)cnn2c1-c1cc(F)cc(Cl)c1Cl [Compound A557] | > 8.00 | > 8.00 | > 8.00 |
| Cc1cc2c(C(C)(C)C)c(C(=O)N[C@H]3CCc4ccccc43)cnn2c1-c1cc(F)cc(Cl)c1Cl [Compound A558] | > 8.00 | > 8.00 | > 8.00 |
| Cc1cc2c(C(C)(C)C)c(C(=O)N[C@H]3CCOc4ncsc43)cnn2c1-c1cc(F)cc(Cl)c1Cl [Compound A551] | 7.00 to 8.00 | 7.00 to 8.00 | 7.00 to 8.00 |
| Cc1cc2c(C(C)(C)C)c(C(=O)N[C@H]3CCOc4ccccc43)cnn2c1N1CCC(F)(F)CC1 [Compound A527] | 6.00 to 7.00 | 7.00 to 8.00 | 6.00 to 7.00 |

Reference: patent US11999742B2, “Substituted pyrrolo[1,2-b]pyridazines as anthelmintics” (BOEHRINGER INGELHEIM VETMEDICA GMBH, priority 2021, dated 2024)
